Assay results published in ChEMBL document CHEMBL4418497, “Compositions and methods relating to inhibiting serine hyrdoxymethyltransferase 2 activity” (2016).

Key:
[1] = molecular target: T1, Serine hydroxymethyltransferase, mitochondrial (Homo sapiens) (UniProt P34897); test: Inhibition of His-tagged human recombinant SHMT2 expressed in Escherichia coli BLR(DE3) assessed as reduction in NADPH level using L-serine, THF and NADP+ at 6.5 or 26.5 uM incubated for 5 mins by SHMT2-MTHFD coupled reaction based fluorescence assay relative to control
T1 sequence (whole entry): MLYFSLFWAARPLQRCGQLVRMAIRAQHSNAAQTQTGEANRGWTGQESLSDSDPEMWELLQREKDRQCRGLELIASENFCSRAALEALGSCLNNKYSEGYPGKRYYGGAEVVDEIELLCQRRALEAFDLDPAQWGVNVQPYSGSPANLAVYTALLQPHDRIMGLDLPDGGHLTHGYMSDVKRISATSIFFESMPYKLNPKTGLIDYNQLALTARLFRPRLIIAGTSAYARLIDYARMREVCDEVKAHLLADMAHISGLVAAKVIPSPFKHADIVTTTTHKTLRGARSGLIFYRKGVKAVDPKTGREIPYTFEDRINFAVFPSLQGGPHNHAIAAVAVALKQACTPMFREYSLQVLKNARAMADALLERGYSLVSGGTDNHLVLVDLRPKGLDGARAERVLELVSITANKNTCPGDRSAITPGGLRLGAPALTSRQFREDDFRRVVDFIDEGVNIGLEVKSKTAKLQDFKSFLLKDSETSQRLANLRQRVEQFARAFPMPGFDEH

[2] = molecular target: T2, Serine hydroxymethyltransferase, mitochondrial (Homo sapiens, UniProt P34897); test: Inhibition of His-tagged human recombinant SHMT2 expressed in Escherichia coli BLR(DE3) assessed as reduction in NADPH level using L-serine, THF and NADP+ incubated for 5 mins by SHMT2-MTHFD coupled reaction based fluorescence assay; conditions: read-out: pIC50 (converted)
T2 sequence (P34897 whole entry): T1 sequence (whole entry)

Compound CN(C)c1cc2c(Nc3ccc4c(cnn4Cc4ccccc4)c3)ncnc2cn1 [GW282974X] has an inhibition [1] of 77.5% and an IC50 [2] of 2450 nM.
Cc1cc(/C=C/c2ccc3cc(N(C)C)ccc3[n+]2C)c(C)n1-c1ccccc1 showed an inhibition [1] of 88.2% and an IC50 [2] of 2570 nM.
With COc1cc(NC(C)CCCN)c2ncccc2c1 (stereo not drawn) [PRIMAQUINE] the inhibition [1] was 91.9% and the IC50 [2] was 437 nM.
For CCOC(=O)Nc1ccc(NCc2ccc(F)cc2)nc1N [FLUPIRTINE], the inhibition [1] was 86.1% and the IC50 [2] was 933 nM.
CNCC[C@H](Oc1cccc2ccccc12)c1cccs1 [DULOXETINE] was tested, and the inhibition [1] was 83.8% and the IC50 [2] was 6920 nM.
With COc1ccc(Cc2nccc3cc(OC)c(OC)cc23)cc1OC [PAPAVERINE] the inhibition [1] was 59.2% and the IC50 [2] was 2690 nM.
Compound O=C(Nc1cccc2c(=O)cc(-c3nnn[nH]3)oc12)c1ccc(OCCCCc2ccccc2)cc1 has an inhibition [1] of 65.5%.
CCOC(=O)[C@H](CCc1ccccc1)N[C@H](C)C(=O)N1C2CCCCC2C[C@H]1CO (stereo partly drawn) showed an inhibition [1] of 53%.
In the case of CN1CC[C@@]2(C)c3cc(OC(=O)Nc4ccccc4)ccc3N(C)[C@@H]12, the inhibition [1] is reported as 56.6%.
CN(C)N1C(=O)c2cccc3c(Br)ccc(c23)C1=O gave an inhibition [1] of 69.8%.
CNC(=O)Oc1ccc2c(c1)[C@]1(C)CCN(C)[C@@H]1N2 was tested, and the inhibition [1] was 55.9%.
Compound Cc1cccc(C)c1NC(=O)[C@@H]1CCCCN1C has an inhibition [1] of 60.1%.
For C=C(C)[C@H]1CC=C(C(=O)O)CC1, the inhibition [1] was 70%.
In the case of Nc1cc(-c2ccncc2)c[nH]c1=O, the inhibition [1] is reported as 92.3%.
CC(=O)C1CC[C@H]2C3CC[C@H]4C[C@H](O)CC[C@]4(C)C3CC[C@]12C (stereo partly drawn) gave an inhibition [1] of 65.9%.
Brc1c(NC2=NCCN2)ccc2nccnc12 showed an inhibition [1] of 79%.
For COc1ccc2c(c1O)-c1c(OC)c(OC)cc3c1C(C2)N(C)CC3 (stereo not drawn), the inhibition [1] was 69.3%.
